Measurements reported in ChEMBL document CHEMBL3526130, “An evaluation of using rat-derived single-dose neuropharmacokinetic parameters to project accurately large animal unbound brain drug concentrations” (Drug Metab Dispos, 2012).
Blank lines part the entries; values can stand above or below the molecule they belong to.

How the values were obtained:
[1] = AUC(0 to 2 hrs) in Sprague-Dawley rat plasma at 2 mg/kg, sc by LC-MS/MS analysis; type: ADME, organism-based; parameters: time < 2 hr, dose 2 mg/kg, route subcutaneous
[2] = AUC(0 to infinity) in Sprague-Dawley rat plasma at 2 mg/kg, sc by LC-MS/MS analysis; type: ADME, organism-based; parameters: time infinity, dose 2 mg/kg, route subcutaneous
[3] = AUC(0 to 2 hrs) in Sprague-Dawley rat cerebrospinal fluid at 2 mg/kg, sc by LC-MS/MS analysis; type: ADME, organism-based; parameters: time < 2 hr, dose 2 mg/kg, route subcutaneous
[4] = AUC(0 to infinity) in Sprague-Dawley rat cerebrospinal fluid at 2 mg/kg, sc by LC-MS/MS analysis; type: ADME, organism-based; parameters: time infinity, dose 2 mg/kg, route subcutaneous
[5] = Ratio of drug level in brain to plasma in Sprague-Dawley rat at 2 mg/kg, sc by LC-MS/MS analysis; type: ADME, organism-based; parameters: dose 2 mg/kg, route subcutaneous; details: read-out: BPR
[6] = test system: Nucleic Acid; experiment: Ratio of drug level in cerebrospinal fluid to unbound plasma concentration in Sprague-Dawley rat at 2 mg/kg, sc by LC-MS/MS analysis; type: ADME, organism-based; parameters: dose 2 mg/kg, route subcutaneous; details: in vivo
[7] = Ratio of unbound brain concentration to drug level in cerebrospinal fluid in Sprague-Dawley rat at 2 mg/kg, sc by LC-MS/MS analysis; type: ADME, organism-based; parameters: dose 2 mg/kg, route subcutaneous; details: in vivo
[8] = Ratio of unbound drug level in brain to plasma in Sprague-Dawley rat at 2 mg/kg, sc by LC-MS/MS analysis; type: ADME, organism-based; parameters: dose 2 mg/kg, route subcutaneous
[9] = AUC(0 to 2 hrs) in Sprague-Dawley rat brain at 2 mg/kg, sc by LC-MS/MS analysis; type: ADME, organism-based; parameters: time < 2 hr, dose 2 mg/kg, route subcutaneous
[10] = AUC(0 to infinity) in Sprague-Dawley rat brain at 2 mg/kg, sc by LC-MS/MS analysis; type: ADME, organism-based; parameters: dose 2 mg/kg, route subcutaneous, time infinity
[11] = AUC(0 to 4 hrs) in Beagle dog plasma at 1 mg/kg, sc by LC-MS/MS analysis; type: ADME, organism-based, Canis lupus familiaris; parameters: time < 4 hr, dose 1 mg/kg, route subcutaneous
[12] = AUC(0 to 2 hrs) in cynomolgus monkey plasma at 1 mg/kg, sc by LC-MS/MS analysis; type: ADME, organism-based, Macaca fascicularis; parameters: time < 2 hr, dose 1 mg/kg, route subcutaneous
[13] = AUC(0 to 2 hrs) in cynomolgus monkey cerebrospinal fluid at 1 mg/kg, sc by LC-MS/MS analysis; type: ADME, organism-based, Macaca fascicularis; parameters: time < 2 hr, dose 1 mg/kg, route subcutaneous
[14] = AUC(0 to 2 hrs) in Sprague-Dawley rat plasma at 3.2 mg/kg, sc by LC-MS/MS analysis; type: ADME, organism-based; parameters: time < 2 hr, dose 3.2 mg/kg, route subcutaneous
[15] = AUC(0 to infinity) in Sprague-Dawley rat plasma at 3.2 mg/kg, sc by LC-MS/MS analysis; type: ADME, organism-based; parameters: time infinity, dose 3.2 mg/kg, route subcutaneous
[16] = AUC(0 to 2 hrs) in Sprague-Dawley rat cerebrospinal fluid at 3.2 mg/kg, sc by LC-MS/MS analysis; type: ADME, organism-based; parameters: time < 2 hr, dose 3.2 mg/kg, route subcutaneous
[17] = Ratio of drug level in brain to plasma in Sprague-Dawley rat at 3.2 mg/kg, sc by LC-MS/MS analysis; type: ADME, organism-based; parameters: dose 3.2 mg/kg, route subcutaneous; details: read-out: BPR
[18] = test system: Nucleic Acid; experiment: Ratio of drug level in cerebrospinal fluid to unbound plasma concentration in Sprague-Dawley rat at 3.2 mg/kg, sc by LC-MS/MS analysis; type: ADME, organism-based; parameters: dose 3.2 mg/kg, route subcutaneous; details: in vivo
[19] = Ratio of unbound brain concentration to drug level in cerebrospinal fluid in Sprague-Dawley rat at 3.2 mg/kg, sc by LC-MS/MS analysis; type: ADME, organism-based; parameters: dose 3.2 mg/kg, route subcutaneous; details: in vivo
[20] = Ratio of unbound drug level in brain to plasma in Sprague-Dawley rat at 3.2 mg/kg, sc by LC-MS/MS analysis; type: ADME, organism-based; parameters: dose 3.2 mg/kg, route subcutaneous
[21] = Unbound fraction in Beagle dog plasma at 1 mg/kg, sc by LC-MS/MS analysis; type: ADME, organism-based, Canis lupus familiaris; parameters: dose 1 mg/kg, route subcutaneous
[22] = Unbound fraction in Beagle dog brain at 1 mg/kg, sc by LC-MS/MS analysis; type: ADME, organism-based, Canis lupus familiaris; parameters: dose 1 mg/kg, route subcutaneous
[23] = Unbound fraction in cynomolgus monkey plasma at 1 mg/kg, sc by LC-MS/MS analysis; type: ADME, organism-based, Macaca fascicularis; parameters: dose 1 mg/kg, route subcutaneous
[24] = Unbound fraction in cynomolgus monkey brain at 1 mg/kg, sc by LC-MS/MS analysis; type: ADME, organism-based, Macaca fascicularis; parameters: dose 1 mg/kg, route subcutaneous
[25] = AUC(0 to infinity) in Sprague-Dawley rat cerebrospinal fluid at 3.2 mg/kg, sc by LC-MS/MS analysis; type: ADME, organism-based; parameters: time infinity, dose 3.2 mg/kg, route subcutaneous
[26] = AUC(0 to 2 hrs) in Sprague-Dawley rat brain at 3.2 mg/kg, sc by LC-MS/MS analysis; type: ADME, organism-based; parameters: time < 2 hr, dose 3.2 mg/kg, route subcutaneous
[27] = AUC(0 to infinity) in Sprague-Dawley rat brain at 3.2 mg/kg, sc by LC-MS/MS analysis; type: ADME, organism-based; parameters: time infinity, dose 3.2 mg/kg, route subcutaneous
[28] = Ratio of unbound brain concentration to drug level in cerebrospinal fluid in cynomolgus monkey at 1 mg/kg, sc by LC-MS/MS analysis; type: ADME, organism-based, Macaca fascicularis; parameters: dose 1 mg/kg, route subcutaneous; details: in vivo
[29] = Ratio of unbound drug level in brain to plasma in Beagle dog at 1 mg/kg, sc by LC-MS/MS analysis; type: ADME, organism-based, Canis lupus familiaris; parameters: dose 1 mg/kg, route subcutaneous; details: brain and plasma
[30] = Ratio of unbound drug level in brain to plasma in cynomolgus monkey at 1 mg/kg, sc by LC-MS/MS analysis; type: ADME, organism-based, Macaca fascicularis; parameters: dose 1 mg/kg, route subcutaneous; details: brain and plasma
[31] = AUC(0 to 4 hrs) in Beagle dog brain at 1 mg/kg, sc by LC-MS/MS analysis; type: ADME, organism-based, Canis lupus familiaris; parameters: time < 4 hr, dose 1 mg/kg, route subcutaneous
[32] = AUC(0 to 2 hrs) in cynomolgus monkey brain at 1 mg/kg, sc by LC-MS/MS analysis; type: ADME, organism-based, Macaca fascicularis; parameters: time < 2 hr, dose 1 mg/kg, route subcutaneous
[33] = Ratio of drug level in brain to plasma in Beagle dog at 1 mg/kg, sc by LC-MS/MS analysis; type: ADME, organism-based, Canis lupus familiaris; parameters: dose 1 mg/kg, route subcutaneous; details: brain and plasma, read-out: BPR
[34] = Ratio of drug level in brain to plasma in cynomolgus monkey at 1 mg/kg, sc by LC-MS/MS analysis; type: ADME, organism-based, Macaca fascicularis; parameters: dose 1 mg/kg, route subcutaneous; details: brain and plasma, read-out: BPR
[35] = test system: Nucleic Acid; experiment: Ratio of drug level in cerebrospinal fluid to unbound plasma concentration in cynomolgus monkey at 1 mg/kg, sc by LC-MS/MS analysis; type: ADME, organism-based, Macaca fascicularis; parameters: dose 1 mg/kg, route subcutaneous; details: in vivo

AUC(0-t) at 2 h [1]: 346 ng·h/mL | AUC(0-inf) [2]: 570 ng·h/mL | AUC(0-t) at 2 h [3]: 4.8 ng·h/mL | AUC(0-inf) [4]: 8.91 ng·h/mL | Kp [5]: 0.64 | Ratio [6]: 0.22 | Ratio [7]: 0.26 | Kp uu [8]: 0.06 | AUC(0-t) at 2 h [9]: 221 ng·h/mL | AUC(0-inf) [10]: 699 ng·h/mL
Structure (SMILES): Clc1ccc2c(c1)N=C(N1CCNCC1)c1ccccc1N2 [N-DESMETHYLCLOZAPINE]

AUC(0-t) at 4 h [11]: 134 ng·h/mL | AUC(0-t) at 2 h [12]: 150 ng·h/mL | AUC(0-t) at 2 h [13]: 2.18 ng·h/mL | AUC(0-t) at 2 h [14]: 302 ng·h/mL | AUC(0-inf) [15]: 479 ng·h/mL | AUC(0-t) at 2 h [16]: 6.42 ng·h/mL | Kp [17]: 11.1 | Ratio [18]: 1.47 | Ratio [19]: 2.65 | Kp uu [20]: 3.9 | fraction unbound [21]: 0.0162 | fraction unbound [22]: 0.00443 | fraction unbound [23]: 0.0279 | fraction unbound [24]: 0.0038 | AUC(0-inf) [25]: 8.12 ng·h/mL | AUC(0-t) at 2 h [26]: 3360 ng·h/mL | AUC(0-inf) [27]: 5570 ng·h/mL | Ratio [28]: 3.92 | Kp uu [29]: 4.61 | Kp uu [30]: 2.04 | AUC(0-t) at 4 h [31]: 2260 ng·h/mL | AUC(0-t) at 2 h [32]: 2250 ng·h/mL | Kp [33]: 16.9 | Kp [34]: 15 | Ratio [35]: 0.52
Structure (SMILES): CNCc1cc(F)c(Cl)cc1Oc1cccc(OC)c1C
